Data on 24 compounds can be found in patent US10550100B2, “5-[3-[piperzin-1-yl]-3-oxo-propyl]-imidazolidine-2,4-dione derivatives as ADAMTS 4 and 5 inhibitors for treating E.G. osteoarthritis” (GALAPAGOS NV, priority 2016, dated 2020).

Structures are written as SMILES. Like-named read-outs stand apart in the source and are kept apart here. A value given as a limit tells only on which side of the number the result lay.

Assay type in all cases: biochemical
The target in test [1] is human ADAMTS-5 (Homo sapiens (Human), UniProt Q9UNA0). Briefly: hADAMTS-5 TBIS-1 cleavage assay, Protocol 3. The following applies: Protocol 3, TBIS-1 substrate, 90 min at 37° C.; read-out: hADAMTS-5 potency IC50. As for the experimental part: The reaction is initiated by adding to the assay plate TBIS-1 (10 μL, 4.5 μM, Anaspec) in the same buffer.
Sequence of human ADAMTS-5 (Q9UNA0 262-930): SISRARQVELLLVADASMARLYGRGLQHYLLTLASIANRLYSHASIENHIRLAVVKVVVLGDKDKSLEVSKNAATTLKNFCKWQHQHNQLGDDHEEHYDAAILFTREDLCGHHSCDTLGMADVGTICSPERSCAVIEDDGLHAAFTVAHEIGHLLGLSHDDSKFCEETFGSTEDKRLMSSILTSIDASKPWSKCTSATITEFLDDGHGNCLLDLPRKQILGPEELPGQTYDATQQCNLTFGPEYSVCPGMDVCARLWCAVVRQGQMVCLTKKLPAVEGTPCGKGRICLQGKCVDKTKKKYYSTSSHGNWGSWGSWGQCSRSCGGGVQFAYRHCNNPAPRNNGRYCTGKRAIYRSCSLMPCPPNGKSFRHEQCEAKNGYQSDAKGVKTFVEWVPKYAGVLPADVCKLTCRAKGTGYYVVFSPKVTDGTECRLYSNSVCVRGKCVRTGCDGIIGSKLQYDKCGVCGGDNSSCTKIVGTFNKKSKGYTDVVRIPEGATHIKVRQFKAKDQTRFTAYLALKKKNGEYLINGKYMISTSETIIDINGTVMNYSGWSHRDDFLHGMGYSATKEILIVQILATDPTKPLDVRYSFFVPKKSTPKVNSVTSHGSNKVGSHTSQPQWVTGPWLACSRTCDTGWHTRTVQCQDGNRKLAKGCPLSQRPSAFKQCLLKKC
Finally, the fluorescence is read on the Envision (Perkin Elmer) after an incubation of 90 min at 37° C. (Excitation 485 nm, emission 530).

In test [2] the target is human ADAMTS6 (Homo sapiens (Human), UniProt Q9UKP5). Description: hADAMTS-6 520 MMP FRET substrate XII cleavage assay. The following applies: 37° C. for 2 h, read-out: hADAMTS-6 potency IC50. The source says:
The IC50 value for test compounds can be determined in a fluorescent based protease assay.
The basis for the assay is the cleavage of the substrate 520 MMP FRET substrate XII by human ADAMTS6.
The substrate contains sequence Arg-Pro-Lys-Pro-Tyr-Ala-Nva-Trp-Met-Lys (SEQ ID NO: 7) with attached a fluorescent probe and a quencher. Without ADAMTS6, the emission of the probe is quenched. If the substrate is cleaved by ADAMTS6, the emission of the probe is not quenched anymore. Inhibition of ADAMTS6 activity, will result in a decrease of the signal.
To perform the assay, 4 μL of a dilution series of compound in water, starting from 20 μM highest concentration, 1/5 dilution, is added to the wells. 2 ng ADAMTS6 enzyme is diluted in 25 mM Tris pH8.0, 0.05% CHAPS, 2.5 mM CaCl2 in a total volume of 26 μL (final concentration 0.73 nM). The reaction is started by addition of 10 μL of 1 μM 520 MMP FRET Substrate XII (final concentration, diluted in same buffer as described above) and the mixture is incubated at 37° C. for 2 h. […] After this incubation, cleavage of the substrate is measured using the Envision (Perkin Elmer, exc485/em530).

The target of test [3] is human TACE (Homo sapiens (Human), UniProt P78536). Description: hTACE 5FAM-[…]-5TAMRA cleavage assay. The following applies: 75 min at room temperature, read-out: hTACE potency IC50. On the procedure: Finally, the fluorescence is read on the Envision (Perkin Elmer) after an incubation of 75 min at room temperature (Excitation 485 nm, Emission 530).
Sequence of human TACE (P78536 215-671): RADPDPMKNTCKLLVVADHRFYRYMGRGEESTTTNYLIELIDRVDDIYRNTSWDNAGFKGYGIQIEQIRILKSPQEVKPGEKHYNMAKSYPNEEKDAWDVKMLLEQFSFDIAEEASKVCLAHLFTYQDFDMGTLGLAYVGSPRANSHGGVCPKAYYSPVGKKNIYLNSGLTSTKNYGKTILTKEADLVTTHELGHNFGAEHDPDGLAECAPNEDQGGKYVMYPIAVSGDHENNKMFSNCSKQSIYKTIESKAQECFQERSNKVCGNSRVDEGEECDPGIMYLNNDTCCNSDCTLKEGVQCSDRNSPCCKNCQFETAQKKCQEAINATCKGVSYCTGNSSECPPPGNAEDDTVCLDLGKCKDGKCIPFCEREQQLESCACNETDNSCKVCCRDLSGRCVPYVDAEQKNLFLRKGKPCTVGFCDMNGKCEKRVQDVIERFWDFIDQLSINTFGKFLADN

Sequence of human ADAMTS6 (Q9UKP5 other isoform, or with tags, fused parts or gaps): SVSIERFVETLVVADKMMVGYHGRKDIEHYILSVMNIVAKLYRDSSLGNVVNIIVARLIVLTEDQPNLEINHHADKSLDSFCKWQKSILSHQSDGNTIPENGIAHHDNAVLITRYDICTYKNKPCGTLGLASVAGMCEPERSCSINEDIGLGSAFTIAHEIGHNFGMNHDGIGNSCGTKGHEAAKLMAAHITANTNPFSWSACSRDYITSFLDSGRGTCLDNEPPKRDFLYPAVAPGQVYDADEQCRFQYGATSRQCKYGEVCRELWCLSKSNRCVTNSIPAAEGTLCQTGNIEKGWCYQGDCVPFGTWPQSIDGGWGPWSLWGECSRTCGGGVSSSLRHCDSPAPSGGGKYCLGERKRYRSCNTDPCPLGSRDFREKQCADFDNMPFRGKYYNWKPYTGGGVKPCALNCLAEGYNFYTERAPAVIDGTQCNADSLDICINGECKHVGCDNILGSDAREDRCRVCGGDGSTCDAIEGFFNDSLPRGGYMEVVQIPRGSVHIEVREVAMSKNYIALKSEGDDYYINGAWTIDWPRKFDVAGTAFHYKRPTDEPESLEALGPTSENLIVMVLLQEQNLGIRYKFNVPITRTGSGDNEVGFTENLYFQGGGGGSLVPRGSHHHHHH

As to `COc1ccc(C2CCN(C(=O)CC[C@H]3NC(=O)NC3=O)CC2)cc1` [Cpd 30, (R)-5-(3-(4-(4-methoxyphenyl)piperidin-1-yl)-3-oxopropyl) imidazolidine-2,4-dione], the IC50 in test [1] and in test [2] was above 100 nM in each case.

For the compound `COc1ccc(C2CCN(C(=O)CCC3(C)NC(=O)NC3=O)CC2)cc1` (centres unmarked) [Cpd 31, 5-(3-(4-(4-methoxyphenyl)piperidin-1-yl)-3-oxopropyl)-5-methyl-imidazolidine-2,4-dione], the IC50 in test [1] and in test [2] was above 100 nM throughout.

For the compound `COc1ccc(OC)c(C2CCN(C(=O)CC[C@H]3NC(=O)NC3=O)CC2)c1` [Cpd 35, (R)-5-(3-(4-(2,5-dimethoxy-phenyl)piperidin-1-yl)-3-oxopropyl) imidazolidine-2,4-dione], the IC50 in test [1] and in test [2] was above 100 nM in each case.

In the case of `COc1cc(C2CCN(C(=O)CCC3(C)NC(=O)NC3=O)CC2)c(C)cc1Cl` (centres unmarked) [Cpd 37, 5-(3-(4-(4-chloro-5-methoxy-2-methylphenyl)piperidin-1-yl)-3-oxopropyl)-5-methyl-imidazolidine-2,4-dione], in test [2], the IC50 fell in the range of 0.001 to 25 nM.

With `COc1ccc(OC)c(C2CCN(C(=O)CCC3(C)NC(=O)NC3=O)CC2)c1` (centres unmarked) [Cpd 39, 5-(3-(4-(2,5-dimethoxy-phenyl)piperidin-1-yl)-3-oxopropyl)-5-methyl-imidazolidine-2,4-dione], the IC50 in test [1] and in test [2] was above 100 nM throughout.

For the compound `COc1ccc(Cl)cc1C1CCN(C(=O)CC[C@H]2NC(=O)NC2=O)CC1` [Cpd 40, (R)-5-(3-(4-(5-chloro-2-methoxy-phenyl)piperidin-1-yl)-3-oxopropyl) imidazolidine-2,4-dione], the IC50 in test [1] and in test [2] was above 100 nM each time.

For `COc1cc(C2CCN(C(=O)CC[C@H]3NC(=O)NC3=O)CC2)ccc1F` [Cpd 52, (R)-5-(3-(4-(4-fluoro-3-methoxyphenyl)piperidin-1-yl)-3-oxopropyl) imidazolidine-2,4-dione], the IC50 in test [1], in test [2] and in test [3] (5FAM-LAQAVRSSSRK-5TAMRA) was above 100 nM in each case.

As to `O=C1NC(=O)[C@@H](CCC(=O)N2CCC(c3ccc(F)c(F)c3)CC2)N1` [Cpd 53, (R)-5-(3-(4-(3,4-difluorophenyl)piperidin-1-yl)-3-oxopropyl) imidazolidine-2,4-dione], the IC50 in test [1] and in test [2] was above 100 nM in each case.

Consider `CC1(CCC(=O)N2CCC(c3ccc(F)c(F)c3)CC2)NC(=O)NC1=O` (centres unmarked) [Cpd 56, 5-(3-(4-(3,4-difluorophenyl)piperidin-1-yl)-3-oxopropyl)-5-methyl-imidazolidine-2,4-dione], for which the IC50 in test [1] and in test [2] was above 100 nM in each case.

Take `Cc1cc(Cl)ccc1C1CCN(C(=O)CC[C@H]2NC(=O)NC2=O)CC1` [Cpd 59, (R)-5-(3-(4-(4-chloro-2-methylphenyl)piperidin-1-yl)-3-oxopropyl) imidazolidine-2,4-dione]: the IC50 in test [2] was above 100 nM.

Turning to `Cc1cc(Cl)ccc1C1CCN(C(=O)CCC2(C)NC(=O)NC2=O)CC1` (centres unmarked) [Cpd 60, 5-(3-(4-(4-chloro-2-methylphenyl)piperidin-1-yl)-3-oxopropyl)-5-methyl-imidazolidine-2,4-dione], the values for the IC50 in test [1] and in test [2] were above 100 nM and 50 to 100 nM, respectively.

Take `COc1cc(Cl)c(Cl)cc1C1CCN(C(=O)CCC2(C)NC(=O)NC2=O)CC1` (centres unmarked) [Cpd 62, 5-(3-(4-(4,5-dichloro-2-methoxyphenyl)piperidin-1-yl)-3-oxopropyl)-5-methyl-imidazolidine-2,4-dione]: in test [2], the IC50 is 0.001 to 25 nM.

As for `Cc1cc(Cl)c(F)cc1C1CCN(C(=O)CC[C@H]2NC(=O)NC2=O)CC1` [Cpd 63, (R)-5-(3-(4-(4-chloro-5-fluoro-2-methylphenyl)piperidin-1-yl)-3-oxopropyl) imidazolidine-2,4-dione], the IC50 in test [1] was above 100 nM; in test [2] it was 50 to 100 nM.

For the compound `COc1cc(C2CCN(C(=O)CC[C@@]3(C)NC(=O)NC3=O)CC2)cc(Cl)c1Cl` [Cpd 68, (R)-5-(3-(4-(3,4-dichloro-5-methoxyphenyl)piperidin-1-yl)-3-oxopropyl)-5-methylimidazolidine-2,4-dione], the figures for the IC50 in test [2] and in test [3] (5FAM-[…]-5TAMRA) were 0.001 to 25 nM and 50 to 100 nM, respectively.

In the case of `COc1cc(C2CCN(C(=O)CC[C@H]3NC(=O)NC3=O)CC2)cc(Cl)c1Cl` [Cpd 69, (R)-5-(3-(4-(3,4-dichloro-5-methoxyphenyl)piperidin-1-yl)-3-oxopropyl) imidazolidine-2,4-dione], the IC50 was in the range of 0.001 to 25 nM in test [2] and 50 to 100 nM in test [3] (5FAM-[…]-5TAMRA).

Turning to `COc1cc(C2CCN(C(=O)CC[C@H]3NC(=O)NC3=O)CC2)cc(OC)c1F` [Cpd 82, (5R)-5-[3-[4-(4-fluoro-3,5-dimethoxy-phenyl)-1-piperidyl]-3-oxo-propyl] imidazolidine-2,4-dione], the IC50 is 0.001 to 25 nM in test [2] and 50 to 100 nM in test [3] (5FAM-[…]-5TAMRA).

Regarding `COc1cc(C2CCN(C(=O)CC[C@@]3(C)NC(=O)NC3=O)CC2)c(C)cc1F` [Cpd 83, (5R)-5-[3-[4-(4-fluoro-5-methoxy-2-methyl-phenyl)-1-piperidyl]-3-oxo-propyl]-5-methyl-imidazolidine-2,4-dione], in test [2], the IC50 lay in the range of 25 to 50 nM.

Turning to `COc1c(Cl)cccc1C1CCN(C(=O)CC[C@@]2(C)NC(=O)NC2=O)CC1` [Cpd 86, (5R)-5-[3-[4-(3-chloro-2-methoxy-phenyl)-1-piperidyl]-3-oxo-propyl]-5-methyl-imidazolidine-2,4-dione], the IC50 in test [1] and in test [2] was above 100 nM throughout.

On to `COc1cc(C2CCN(C(=O)CC[C@H]3NC(=O)NC3=O)CC2)cc(N(C)C)c1Cl` [Cpd 91], for which the IC50 in test [2] lay within 25 to 50 nM.

Turning to `COc1cc(Cl)c(Cl)cc1C1CCN(C(=O)CCC2(c3cccc(C)n3)NC(=O)NC2=O)CC1` (centres unmarked) [Cpd 92, 5-[3-[4-(4,5-dichloro-2-methoxy-phenyl)-1-piperidyl]-3-oxo-propyl]-5-(6-methyl-2-pyridyl) imidazolidine-2,4-dione], in test [2], the IC50 lay within 0.001 to 25 nM.

Take `C[C@]1(CCC(=O)N2CCC(c3ccc(Cl)c(C(F)(F)F)c3)CC2)NC(=O)NC1=O` [Cpd 94, (5R)-5-[3-[4-[4-chloro-3-(trifluoromethyl)phenyl]-1-piperidyl]-3-oxo-propyl]-5-methyl-imidazolidine-2,4-dione]: the IC50 in test [2] was 25 to 50 nM.

As to `Cc1cc(C2CCN(C(=O)CC[C@@]3(C)NC(=O)NC3=O)CC2)ccc1Cl` [Cpd 95, (5R)-5-[3-[4-(4-chloro-3-methyl-phenyl)-1-piperidyl]-3-oxo-propyl]-5-methyl-imidazolidine-2,4-dione], the IC50 in test [2] was in the range of 0.001 to 25 nM.

Consider `C[C@H]1CN(C(=O)CC[C@@]2(C)NC(=O)NC2=O)CC[C@H]1c1ccc(F)c(F)c1` [Cpd 99, (5R)-5-[3-[(3R,4R)-4-(3,4-difluorophenyl)-3-methyl-1-piperidyl]-3-oxo-propyl]-5-methyl-imidazolidine-2,4-dione], for which the IC50 in test [1] was 50 to 100 nM; in test [2], 25 to 50 nM.

On to `CC1(CCC(=O)N2CCC(c3ccc(-c4ccccc4F)s3)CC2)NC(=O)NC1=O` (centres unmarked) [Cpd 112, 5-[3-[4-[5-(2-fluorophenyl)-2-thienyl]-1-piperidyl]-3-oxo-propyl]-5-methyl-imidazolidine-2,4-dione], for which the IC50 in test [1] is above 100 nM; in test [2] it was 50 to 100 nM.

A word on the IC50: it is the concentration at which inhibition is half-maximal.
